Where two headings read alike, the source gives them in different places.
Key:
Pf3D7 = test: [3H]hypoxanthine incorporation growth assay, Pf3D7; format: cell-based, Plasmodium falciparum; settings: Plasmodium falciparum
Description: (§1) A selection of 15 molecules 4b–c, 10–13 representing the different 2,6,9-trisubstituted purine series, including newly synthesized products was screened as anti-malarial agents on two different P. falciparum strains, Pf3D7, a standard drug-sensitive African stain, and Pf7G8, a brazilian chloroquino-resistant strain (Figure 3). The compound activity was evaluated during the parasitic erythocytic cycle, by the means of a [^3H] hypoxanthine incorporation assay. It is directly correlated to parasite viability, as described in the experimental section.
(§2) At first, the activity of the fifteen compounds was screened at three different concentrations (10, 50 and 100 µM) on Pf3D7. Chloroquine which is not a kinase inhibitor, but which is the antimalarial reference drug was used as the positive control. […] Chloroquine was again used as a positive control.
(§3) Compounds were tested against synchronous ring-stage parasites of Pf3D7 and Pf7G8 strains. Drugs testing were carried out in 96-well microtiter plates. The chloroquine (CQ) diphosphate was purchased from Sigma (Lyon, France). […] For each assay, each drug dilution was analyzed in triplicate.
(§4) For the in vitro isotopic microtest, 200 µL of the suspension of synchronous parasitized red blood cells with >90% of the parasites at the ring stage (final parasitaemia, 0.3%; final haematocrit, 4%) per well were plated in 96-well plates that contained serial CQ or compounds concentrations. […] The plates were incubated at 37 °C, in an atmosphere of 5% O2, 5% CO2, and 90% N2 for 48 h. Immediately after incubation, plates were frozen and then thawed to lyse the erythrocytes. Cultures were harvested onto glass fiber filters and washed using a cell harvester (FilterMAT; Skatron Instruments, Dalsletta, Norway). The dried fiber filter papers were mixed with 2 mL of scintillation fluid (OptiScint; Perkin-Elmer, Waltham, UK). […] The initial value and the asymptotic result for high concentrations were fixed to 0% and 100%, respectively, available on the web.

Pf7G8 = test: [3H]hypoxanthine incorporation growth assay, Pf7G8; format: cell-based, Plasmodium falciparum; settings: Plasmodium falciparum
Description: as §1, §2, §3, §4

CDK1/cyclin B = CDK1/cyclin B kinase assay ([γ-33P] ATP, histone H1); format: biochemical, starfish; settings: Table A1; read-out: IC50 on HsCDKs HsCDK1
DYRK1A = system: DYRK1A; parameters: method as in PMID 17850214; settings: at 0.1 µM; cited from earlier work
recombinant PfPK5 = system: recombinant PfPK5; parameters: method as in PMID 10722743, PMID 11434907; settings: cited from earlier work
Pfmrk = system: Pfmrk; parameters: method as in PMID 10722743, PMID 11434907; settings: recombinant; cited from earlier work

CC(C)[C@H](CO)Nc1nc(Nc2cccc(Cl)c2)c2ncn(C(C)C)c2n1 [Compound 2a, purvalanol A, reference compound] showed an IC50 (Pf3D7; 48 h, read-out: Growth IC50 Pf3D7) of 4.58 µM, an IC50 (Pf3D7; read-out: IC50 on P. falciparum Strains Pf3D7) of 4.58 µM and an IC50 (Pf7G8; 48 h, read-out: Growth IC50 Pf7G8) of 8.12 µM. For the same molecule, the IC50 (Pf7G8; read-out: IC50 on P. falciparum Strains Pf7G8) was 8.12 µM, the IC50 (CDK1/cyclin B) was 0.004 µM and the “remaining DYRK1A kinase activity” value (DYRK1A) was 88%. The IC50 (recombinant PfPK5) was 8 µM and the IC50 (Pfmrk) was 26 µM.

Source: article PMC6271241, “Several Human Cyclin-Dependent Kinase Inhibitors, Structurally Related to Roscovitine, As New Anti-Malarial Agents” (Molecules, 2014)
